Results on one compound are retold here after ChEMBL document CHEMBL5725609, “1H-pyrazolo[3,4-b]pyridines and therapeutic uses thereof” (2018).

Where “and” joins values, the source holds several entries; their conditions need not be identical. Identical values can stand only once.

The nature of this experiment: Wnt APC Inhibition Assay: Reporter cell lines can be generated by stably transducing cells of cancer cell lines (e.g., colon cancer) with a lentiviral construct that include a wnt-responsive promoter driving expression of the firefly luciferase gene.Lentiviral constructs can be made in which the SP5 promoter, a promoter having eight TCF/LEF binding sites derived from the SP5 promoter, is linked upstream of the firefly luciferase gene. The lentiviral constructs can also include a hygromycin resistance gene as a selectable marker. The SP5 promoter construct can be used to transduce SW480 cells, a colon cancer cell line having a mutated APC gene that generates a truncated APC protein, leading to de-regulated accumulation of β-catenin. […] Compounds from a small molecule compound library can then be added to the wells in half-log dilutions using a ten micromolar top concentration. A series of control wells for each cell type receive only buffer and compound solvent. Twenty-four to forty hours after the addition of compound, reporter activity for luciferase can be assayed, for example, by addition of the BrightGlo luminescence reagent (Promega) and the Victor3 plate reader (Perkin Elmer). Readings can be normalized to DMSO only treated cells, and normalized activities can then be used in the IC50 calculations.

`CC(C)(C)C(=O)Nc1cncc(-c2cnc3[nH]nc(-c4nc5c(-c6cccc(F)c6)cncc5[nH]4)c3c2)c1`: the IC50 (usually the concentration needed to halve the response being measured) was 38 nM and 6 nM.
